Laboratory results: US8796292B2, “Selective antibacterials for clostridium difficile infections” (GLSynthesis Inc., priority 2009, dated 2014)
Converted amounts (≈) assume the structure as drawn. Where two headings read alike, the source gives them in different places. One block for each molecule: values may come before it.

Key:
Assay in all cases: agar dilution MIC assay of anaerobic bacteria
[1] = system: L. casei; format: cell-based, Lactobacillus casei; conditions: Lacticaseibacillus casei
Method: (§1) Each compound was assayed against a panel of anaerobic bacteria in culture, consisting of Gram-positive organisms, such as Lactobacilli, Bifidobacteria, Clostridium spp., and Gram-negative bacteria, such as […] fragilis spp., according to guidelines of the Clinical and Laboratory Standards Institute (CLSI document M11-A7, CLSI, Wayne, Pa., 2007). […] One tenth mL of diluted bacteria containing 500-1000 colony-forming units (CFU) was plated and spread, and the plates incubated at 37° C. for 24-48 hours. MIC (minimum inhibitory concentration) is equivalent to the lowest concentration in μg/ml at which growth, i.e., colony formation, is not observed. […] Bacteria were assayed using a reference agar dilution method. Drug dilutions and drug-supplemented agar plates were prepared manually. The test organisms were maintained frozen at −80° C. The isolates were sub-cultured on Supplemented Brucella Agar (SBA) plates in a Bactron II anaerobic chamber and incubated for 48 hours at 35-36° C. in the Bactron II anaerobe chamber. Following inoculation, the drug-supplemented plates were incubated at 35° C. for 48 hours in the anaerobic environment (5% hydrogen, 5% carbon dioxide, 90% nitrogen) of the Bactron II. The MIC in μg/ml was read per Clinical and Laboratory Standards Institute guidelines.

[2] = system: Ba. fragilis; format: cell-based; conditions: Bacteroides fragilis
Method: as §1

[3] = system: L. acidophilus; format: cell-based; conditions: Lactobacillus acidophilus
Method: as §1

[4] = system: Bi. brevi; format: cell-based, Bifidobacterium brevi
Method: as §1

[5] = system: Bi. longum; format: cell-based, Bifidobacterium longum; conditions: Bifidobacterium longum, read-out: MIC
Method: as §1

[6] = system: E. lentum; format: cell-based, Eubacterium lentum; conditions: Eggerthella lenta, read-out: MIC
Method: as §1

[7] = system: C. difficile; format: cell-based, Clostridium difficile; conditions: Clostridioides difficile, read-out: MIC
Method: as §1

[8] = Strain no. 1722 (ATCC strain), Table 3
[9] = B. fragilis, Strain no. 0123 (ATCC strain), Gram-negative (control), Table 3
[10] = Bifidobacterium breve, Bi. Breve, Strain no. 3967 (ATCC strain), Table 3
[11] = Bi. Longum, Strain no. 3968 (ATCC strain), Table 3
[12] = Eu. Lentum, Strain no. 1274 (ATCC strain), Table 3
[13] = C. diff., Strain no. 3580, Table 3
[14] = C. diff., Strain no. 3581, Table 3
[15] = C. diff., Strain no. 3582, Table 3
[16] = C. diff., Strain no. 3584, Table 3
[17] = C. diff., Strain no. 3585, Table 3
[18] = C. diff., Strain no. 3586, Table 3
[19] = C. diff., Strain no. 3587, Table 3
[20] = C. diff., Strain no. 3588, Table 3
[21] = C. diff., Strain no. 3589, Table 3
[22] = C. diff., Strain no. 4381 (ATCC strain), Table 3
[23] = Ba. fragilis, Micromyx Number 0123 (ATCC strain), Gram negative, Table 1
[24] = Bifidobacterium, Bi. brevi, Micromyx Number 3967, Table 1
[25] = Bi. longum, Micromyx Number 3968, Table 1
[26] = E. lentum, Micromyx Number 1274, Table 1
[27] = C. difficile, Micromyx Number 1209, Table 1
[28] = C. difficile, Micromyx Number 3579, Table 1
[29] = C. difficile, Micromyx Number 3580, Table 1
[30] = C. difficile, Micromyx Number 3581, Table 1
[31] = C. difficile, Micromyx Number 3582, Table 1
[32] = C. difficile, Micromyx Number 3584, Table 1
[33] = C. difficile, Micromyx Number 3585, Table 1
[34] = C. difficile, Micromyx Number 3586, Table 1
[35] = C. difficile, Micromyx Number 3587, Table 1
[36] = C. difficile, Micromyx Number 3588, Table 1
[37] = C. difficile, Micromyx Number 3589, Table 1
[38] = C. difficile, Micromyx Number 3590, Table 1
[39] = C. difficile, Micromyx Number 3591, Table 1
[40] = C. difficile, Micromyx Number 3593, Table 1
[41] = C. difficile, Micromyx Number 3594, Table 1
[42] = C. difficile, Micromyx Number 3595, Table 1
[43] = C. difficile, Micromyx Number 4381 (ATCC strain), Table 1

MIC [1, 8]: > 32 mg/L
MIC [2, 9]: > 32 mg/L
MIC ([3]; Strain no. 0681, Table 3): 16 mg/L
MIC [4, 10]: > 32 mg/L
MIC [5, 11]: > 32 mg/L
MIC [6, 12]: > 32 mg/L
MIC [7, 13]: 32 mg/L
MIC [7, 14]: 8 mg/L
MIC [7, 15]: 32 mg/L
MIC [7, 16]: 8 mg/L
MIC [7, 17]: 16 mg/L
MIC [7, 18]: 8 mg/L
MIC [7, 19]: 16 mg/L
MIC [7, 20]: 2 mg/L
MIC [7, 21]: 16 mg/L
MIC [7, 22]: 8 mg/L
Compound: Cl.O=c1cc(NCc2ccc(Cl)c(Cl)c2)[nH]c(=O)n1CCOCCN1CCOCC1 [Compound 240D]

MIC ([1]; Micromyx Number 1722, Table 1): 32 mg/L (≈ 101 µM)
MIC [2, 23]: > 32 mg/L
MIC ([3]; Micromyx Number 0681, Table 1): 32 mg/L (≈ 101 µM)
MIC [4, 24]: > 32 mg/L
MIC [5, 25]: > 32 mg/L
MIC [6, 26]: > 32 mg/L
MIC [7, 27]: 16 mg/L (≈ 50.4 µM)
MIC [7, 28]: 16 mg/L (≈ 50.4 µM)
MIC [7, 29]: 4 mg/L (≈ 12.6 µM)
MIC [7, 30]: 8 mg/L (≈ 25.2 µM)
MIC [7, 31]: 16 mg/L (≈ 50.4 µM)
MIC [7, 32]: 4 mg/L (≈ 12.6 µM)
MIC [7, 33]: 16 mg/L (≈ 50.4 µM)
MIC [7, 34]: 4 mg/L (≈ 12.6 µM)
MIC [7, 35]: 8 mg/L (≈ 25.2 µM)
MIC [7, 36]: 1 mg/L (≈ 3.15 µM)
MIC [7, 37]: 16 mg/L (≈ 50.4 µM)
MIC [7, 38]: 8 mg/L (≈ 25.2 µM)
MIC [7, 39]: 8 mg/L (≈ 25.2 µM)
MIC [7, 40]: 16 mg/L (≈ 50.4 µM)
MIC [7, 41]: 4 mg/L (≈ 12.6 µM)
MIC [7, 42]: 4 mg/L (≈ 12.6 µM)
MIC [7, 43]: 4 mg/L (≈ 12.6 µM)
Compound: CCc1cc(Nc2cc(=O)n(CCCCO)c(=O)[nH]2)ccc1C [Compound 179E]

Compound: CN[C@H](CC(C)C)C(=O)N[C@H]1C(=O)N[C@@H](CC(N)=O)C(=O)N[C@H]2C(=O)N[C@H]3C(=O)N[C@H](C(=O)N[C@H](C(=O)O)c4cc(O)cc(O)c4-c4cc3ccc4O)[C@H](O)c3ccc(c(Cl)c3)Oc3cc2cc(c3O[C@@H]2O[C@H](CO)[C@@H](O)[C@H](O)[C@H]2O[C@H]2C[C@](C)(N)[C@H](O)[C@H](C)O2)Oc2ccc(cc2Cl)[C@H]1O [vancomycin, reference compound]
MIC ([1]; Micromyx Number 1722, Table 1): > 16 mg/L
MIC ([2]; B. fragilis, Micromyx Number 0123 (ATCC strain), Table 2): 32 mg/L (≈ 22.1 µM)
MIC [2, 23]: > 16 mg/L
MIC ([3]; Micromyx Number 0681, Table 1): 2 mg/L (≈ 1.38 µM)
MIC [4, 24]: 2 mg/L (≈ 1.38 µM)
MIC [5, 25]: 0.5 mg/L (≈ 0.345 µM)
MIC [6, 26]: 2 mg/L (≈ 1.38 µM)
MIC ([7]; C. diff. Strain no. 18285, Table 4): 1 mg/L (≈ 0.69 µM)
MIC ([7]; C. diff. Strain no. 19265, Table 4): 1 mg/L (≈ 0.69 µM)
MIC ([7]; C. diff. Strain no. 19273, Table 4): 1 mg/L (≈ 0.69 µM)
MIC ([7]; C. diff. Strain no. 19281, Table 4): 1 mg/L (≈ 0.69 µM)
MIC ([7]; C. diff. Strain no. 19291, Table 4): 1 mg/L (≈ 0.69 µM)
MIC ([7]; C. diff. Strain no. 19369, Table 4): 1 mg/L (≈ 0.69 µM)
MIC ([7]; C. diff. Strain no. 19382, Table 4): 4 mg/L (≈ 2.76 µM)
MIC ([7]; C. diff. Strain no. 19540, Table 4): 1 mg/L (≈ 0.69 µM)
MIC ([7]; C. diff. Strain no. 19580, Table 4): 4 mg/L (≈ 2.76 µM)
MIC ([7]; C. diff. Strain no. 19680, Table 4): 1 mg/L (≈ 0.69 µM)
MIC ([7]; C. diff. Strain no. 19681, Table 4): 2 mg/L (≈ 1.38 µM)
MIC ([7]; C. diff. Strain no. 19683, Table 4): 8 mg/L (≈ 5.52 µM)
MIC ([7]; C. diff. Strain no. 19687, Table 4): 1 mg/L (≈ 0.69 µM)
MIC ([7]; C. diff. Strain no. 20066, Table 4): 4 mg/L (≈ 2.76 µM)
MIC ([7]; C. diff. Strain no. 20152, Table 4): 1 mg/L (≈ 0.69 µM)
MIC ([7]; C. diff. Strain no. 20307, Table 4): 2 mg/L (≈ 1.38 µM)
MIC ([7]; C. diff. Strain no. 20494, Table 4): 4 mg/L (≈ 2.76 µM)
MIC ([7]; C. diff. Strain no. 20680, Table 4): 1 mg/L (≈ 0.69 µM)
MIC ([7]; C. diff. Strain no. 20934, Table 4): 4 mg/L (≈ 2.76 µM)
MIC ([7]; C. diff. Strain no. 21099, Table 4): 2 mg/L (≈ 1.38 µM)
MIC ([7]; C. diff., Micromyx Number 3579, Table 2): 1 mg/L (≈ 0.69 µM)
MIC ([7]; C. diff., Micromyx Number 3580, Table 2): 1 mg/L (≈ 0.69 µM)
MIC ([7]; C. diff., Micromyx Number 3581, Table 2): 4 mg/L (≈ 2.76 µM)
MIC ([7]; C. diff., Micromyx Number 3582 (ATCC strain), Table 2): 2 mg/L (≈ 1.38 µM)
MIC [7, 27]: 1 mg/L (≈ 0.69 µM)
MIC [7, 28]: 1 mg/L (≈ 0.69 µM)
MIC [7, 29]: 1 mg/L (≈ 0.69 µM)
MIC [7, 30]: 1 mg/L (≈ 0.69 µM)
MIC [7, 31]: 0.25 mg/L (≈ 0.173 µM)
MIC [7, 32]: 0.5 mg/L (≈ 0.345 µM)
MIC [7, 33]: 0.5 mg/L (≈ 0.345 µM)
MIC [7, 34]: 0.5 mg/L (≈ 0.345 µM)
MIC [7, 35]: 1 mg/L (≈ 0.69 µM)
MIC [7, 36]: 2 mg/L (≈ 1.38 µM)
MIC [7, 37]: 0.5 mg/L (≈ 0.345 µM)
MIC [7, 38]: 1 mg/L (≈ 0.69 µM)
MIC [7, 39]: 2 mg/L (≈ 1.38 µM)
MIC [7, 40]: 0.5 mg/L (≈ 0.345 µM)
MIC [7, 41]: 1 mg/L (≈ 0.69 µM)
MIC [7, 42]: 1 mg/L (≈ 0.69 µM)
MIC [7, 43]: 1 mg/L (≈ 0.69 µM)

MIC [1, 8]: > 32 mg/L
MIC [2, 9]: > 32 mg/L
MIC ([3]; Strain no. 0681, Table 3): 16 mg/L (≈ 34.2 µM)
MIC [4, 10]: > 32 mg/L
MIC [5, 11]: > 32 mg/L
MIC [6, 12]: > 32 mg/L
MIC [7, 13]: 16 mg/L (≈ 34.2 µM)
MIC [7, 14]: 8 mg/L (≈ 17.1 µM)
MIC [7, 15]: 16 mg/L (≈ 34.2 µM)
MIC [7, 16]: 4 mg/L (≈ 8.56 µM)
MIC [7, 17]: 16 mg/L (≈ 34.2 µM)
MIC [7, 18]: 4 mg/L (≈ 8.56 µM)
MIC [7, 19]: 8 mg/L (≈ 17.1 µM)
MIC [7, 20]: 1 mg/L (≈ 2.14 µM)
MIC [7, 21]: 16 mg/L (≈ 34.2 µM)
MIC [7, 22]: 8 mg/L (≈ 17.1 µM)
Compound: O=c1[nH]c(NCc2ccc(Cl)c(Cl)c2)nc2ncn(CCOCCN3CCOCC3)c12 [Compound 360A]

MIC ([1]; Micromyx Number 1722, Table 1): 32 mg/L (≈ 86.6 µM)
MIC [2, 23]: > 32 mg/L
MIC ([3]; Micromyx Number 0681, Table 1): 16 mg/L (≈ 43.3 µM)
MIC [4, 24]: > 32 mg/L
MIC [5, 25]: > 32 mg/L
MIC [6, 26]: > 32 mg/L
MIC [7, 27]: 16 mg/L (≈ 43.3 µM)
MIC [7, 28]: 16 mg/L (≈ 43.3 µM)
MIC [7, 29]: 8 mg/L (≈ 21.7 µM)
MIC [7, 30]: 8 mg/L (≈ 21.7 µM)
MIC [7, 31]: > 32 mg/L
MIC [7, 32]: 8 mg/L (≈ 21.7 µM)
MIC [7, 33]: 16 mg/L (≈ 43.3 µM)
MIC [7, 34]: 8 mg/L (≈ 21.7 µM)
MIC [7, 35]: 8 mg/L (≈ 21.7 µM)
MIC [7, 36]: 4 mg/L (≈ 10.8 µM)
MIC [7, 37]: 16 mg/L (≈ 43.3 µM)
MIC [7, 38]: 8 mg/L (≈ 21.7 µM)
MIC [7, 39]: 8 mg/L (≈ 21.7 µM)
MIC [7, 40]: 16 mg/L (≈ 43.3 µM)
MIC [7, 41]: 8 mg/L (≈ 21.7 µM)
MIC [7, 42]: 8 mg/L (≈ 21.7 µM)
MIC [7, 43]: 8 mg/L (≈ 21.7 µM)
Compound: CCc1cc(Nc2nc3ncn(CCCCCOC)c3c(=O)[nH]2)ccc1C [Compound 315C]
